Data published in patent US6504057B2, “Fluorophenyl-substituted alkenylcarboxylic acid guanidides, process for their preparation, their use as a medicament or diagnostic, and medicament containing them” (Hoechst Aktiengesellschaft, priority 1995, dated 2003).
Counter-ions that a name gives are not always drawn.

System: not given
Settings: not given

| SMILES | melting point |
| --- | --- |
| NC(N)=NC(=O)/C=C/c1cc(F)ccc1F (as salt: hydrochloride) [Example 2, E-3-(2,5-Difluorophenyl)acrylic acid guanidide hydrochloride] | 230 °C |
| C/C(=C\c1c(F)c(F)cc(F)c1F)C(=O)N=C(N)N (as salt: hydrochloride) [Example 9, E-3-(2,3,5,6-Tetrafluorophenyl)-2-methylacrylic acid guanidide hydrochloride] | 138 °C |
| NC(N)=NC(=O)/C=C/c1cccc(F)c1 (as salt: hydrochloride) [Example 1, E-3-(3-Fluorophenyl)acrylic acid guanidide hydrochloride] | 148 °C |
| NC(N)=NC(=O)/C=C/c1ccccc1F (as salt: hydrochloride) [Example 4, E-3-(2-Fluorophenyl)acrylic acid guanidide hydrochloride] | 243 °C |
| NC(N)=NC(=O)/C=C/c1cc(F)cc(F)c1 (as salt: hydrochloride) [Example 3, E-3-(3,5-Difluorophenyl) acrylic acid guanidide hydrochloride] | 235 °C |
| C/C(=C\c1cc(F)cc(F)c1)C(=O)N=C(N)N (as salt: hydrochloride) [Example 5, E-3-(3,5-Difluorophenyl)-2-methylacrylic acid guanidide hydrochloride] | 178 °C |

System: rat heart
Settings: isolated rat heart; cited from earlier work

| SMILES | suppression of artificially produced ventricular fibrillation |
| --- | --- |
| N=C(N)NC(=O)c1nc(Cl)c(N)nc1N [amiloride] | completely suppressed |
| CCN(c1nc(N)c(C(=O)NC(=N)N)nc1Cl)C(C)C [ethylisopropylamiloride] | even more potent than amiloride |
